Laboratory results taken from patent US10131652B2, “Pyrimidinyloxy benzene derivatives as herbicides” (E. I. DU PONT DE NEMOURS AND COMPANY, priority 2014, dated 2018).
Where two headings read alike, the source gives them in different places.

Assays:
Assay in all cases: Test E pre-/postemergence plant response
Assay type in all cases: in vivo
[1] = tested on: Italian ryegrass (Lolium multiflorum); conditions: scale 0 to 100, read-out: Plant response rating, Ryegrass, Italian; for pest or weed control at 16 g/ha: 16 g ai/ha; for pest or weed control at 31 g/ha: 31 g ai/ha; for pest or weed control at 62 g/ha: 62 g ai/ha; for pest or weed control at 125 g/ha: 125 g ai/ha
Outline: (§1)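 Visual scores on a 0–100 scale (100 = complete control) were assigned against untreated controls 7–21 days after treatment in a controlled environment. Compounds, formulated with solvent plus surfactant, were applied to pre-emergence silt-loam sowings or to 1- to 4-leaf plants (2–18 cm) in potting medium.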

[2] = tested on: blackgrass (Alopecurus myosuroides); conditions: scale 0 to 100, read-out: Plant response rating, Blackgrass; for pest or weed control at 16 g/ha: 16 g ai/ha; for pest or weed control at 31 g/ha: 31 g ai/ha; for pest or weed control at 62 g/ha: 62 g ai/ha; for pest or weed control at 125 g/ha: 125 g ai/ha
Outline: as §1

[3] = tested on: canarygrass (Phalaris minor); conditions: scale 0 to 100, read-out: Plant response rating, Canarygrass; for pest or weed control at 16 g/ha: 16 g ai/ha; for pest or weed control at 31 g/ha: 31 g ai/ha; for pest or weed control at 62 g/ha: 62 g ai/ha; for pest or weed control at 125 g/ha: 125 g ai/ha
Outline: as §1

[4] = tested on: chickweed (common chickweed, Stellaria media); conditions: scale 0 to 100, read-out: Plant response rating, Chickweed; for pest or weed control at 16 g/ha: 16 g ai/ha; for pest or weed control at 31 g/ha: 31 g ai/ha; for pest or weed control at 62 g/ha: 62 g ai/ha; for pest or weed control at 125 g/ha: 125 g ai/ha
Outline: as §1

[5] = tested on: deadnettle (henbit deadnettle, Lamium amplexicaule); conditions: scale 0 to 100, read-out: Plant response rating, Deadnettle; for pest or weed control at 16 g/ha: 16 g ai/ha; for pest or weed control at 31 g/ha: 31 g ai/ha; for pest or weed control at 62 g/ha: 62 g ai/ha; for pest or weed control at 125 g/ha: 125 g ai/ha
Outline: as §1

[6] = tested on: field violet (Viola arvensis); conditions: scale 0 to 100, read-out: Plant response rating, Field Violet; for pest or weed control at 16 g/ha: 16 g ai/ha; for pest or weed control at 31 g/ha: 31 g ai/ha; for pest or weed control at 62 g/ha: 62 g ai/ha; for pest or weed control at 125 g/ha: 125 g ai/ha
Outline: as §1

[7] = tested on: galium (catchweed bedstraw, Galium aparine); conditions: scale 0 to 100, read-out: Plant response rating, Galium; for pest or weed control at 16 g/ha: 16 g ai/ha; for pest or weed control at 31 g/ha: 31 g ai/ha; for pest or weed control at 62 g/ha: 62 g ai/ha; for pest or weed control at 125 g/ha: 125 g ai/ha
Outline: as §1

[8] = tested on: lambsquarters (Chenopodium album); conditions: scale 0 to 100, read-out: Plant response rating, Lambsquarters; for pest or weed control at 16 g/ha: 16 g ai/ha; for pest or weed control at 31 g/ha: 31 g ai/ha; for pest or weed control at 62 g/ha: 62 g ai/ha; for pest or weed control at 125 g/ha: 125 g ai/ha
Outline: as §1

[9] = tested on: pigweed (Amaranthus retroflexus); conditions: scale 0 to 100, read-out: Plant response rating, Pigweed; for pest or weed control at 16 g/ha: 16 g ai/ha; for pest or weed control at 31 g/ha: 31 g ai/ha; for pest or weed control at 62 g/ha: 62 g ai/ha; for pest or weed control at 125 g/ha: 125 g ai/ha
Outline: as §1

[10] = tested on: wild radish (Raphanus raphanistrum); conditions: scale 0 to 100, read-out: Plant response rating, Radish, Wild; for pest or weed control at 16 g/ha: 16 g ai/ha; for pest or weed control at 31 g/ha: 31 g ai/ha; for pest or weed control at 62 g/ha: 62 g ai/ha; for pest or weed control at 125 g/ha: 125 g ai/ha
Outline: as §1

[11] = tested on: winter barley (Hordeum vulgare); conditions: scale 0 to 100, read-out: Plant response rating, Barley, Winter; for plant injury at 16 g/ha: 16 g ai/ha; for plant injury at 31 g/ha: 31 g ai/ha; for plant injury at 62 g/ha: 62 g ai/ha; for plant injury at 125 g/ha: 125 g ai/ha
Outline: as §1

Fc1cccc(Oc2ncc(Cl)cn2)c1-c1cc(C(F)F)on1 [Compound 55, 5-chloro-2-[2-[5-(difluoromethyl)-3-isoxazolyl]-3-fluorophenoxy]pyrimidine]
pest or weed control at 16 g/ha ([1]; post-emergence, Postemergence): 20%
pest or weed control at 31 g/ha ([1]; post-emergence, Postemergence): 20%
pest or weed control at 62 g/ha ([1]; post-emergence, Postemergence): 15%
pest or weed control at 125 g/ha ([1]; post-emergence, Postemergence): 20%
pest or weed control at 16 g/ha ([1]; pre-emergence, Preemergence): 0%
pest or weed control at 31 g/ha ([1]; pre-emergence, Preemergence): 0%
pest or weed control at 62 g/ha ([1]; pre-emergence, Preemergence): 50%
pest or weed control at 125 g/ha ([1]; pre-emergence, Preemergence): 50%
pest or weed control at 16 g/ha ([2]; post-emergence, Postemergence): 5%
pest or weed control at 31 g/ha ([2]; post-emergence, Postemergence): 10%
pest or weed control at 62 g/ha ([2]; post-emergence, Postemergence): 20%
pest or weed control at 125 g/ha ([2]; post-emergence, Postemergence): 40%
pest or weed control at 16 g/ha ([2]; pre-emergence, Preemergence): 0%
pest or weed control at 31 g/ha ([2]; pre-emergence, Preemergence): 15%
pest or weed control at 62 g/ha ([2]; pre-emergence, Preemergence): 60%
pest or weed control at 125 g/ha ([2]; pre-emergence, Preemergence): 100%
pest or weed control at 16 g/ha ([3]; post-emergence, Postemergence): 10%
pest or weed control at 31 g/ha ([3]; post-emergence, Postemergence): 20%
pest or weed control at 62 g/ha ([3]; post-emergence, Postemergence): 30%
pest or weed control at 125 g/ha ([3]; post-emergence, Postemergence): 30%
pest or weed control at 16 g/ha ([3]; pre-emergence, Preemergence): 10%
pest or weed control at 31 g/ha ([3]; pre-emergence, Preemergence): 20%
pest or weed control at 62 g/ha ([3]; pre-emergence, Preemergence): 100%
pest or weed control at 125 g/ha ([3]; pre-emergence, Preemergence): 100%
pest or weed control at 16 g/ha ([4]; post-emergence, Postemergence): 55%
pest or weed control at 31 g/ha ([4]; post-emergence, Postemergence): 55%
pest or weed control at 62 g/ha ([4]; post-emergence, Postemergence): 70%
pest or weed control at 125 g/ha ([4]; post-emergence, Postemergence): 70%
pest or weed control at 16 g/ha ([4]; pre-emergence, Preemergence): 65%
pest or weed control at 31 g/ha ([4]; pre-emergence, Preemergence): 100%
pest or weed control at 62 g/ha ([4]; pre-emergence, Preemergence): 100%
pest or weed control at 125 g/ha ([4]; pre-emergence, Preemergence): 100%
pest or weed control at 16 g/ha ([5]; post-emergence, Postemergence): 20%
pest or weed control at 31 g/ha ([5]; post-emergence, Postemergence): 50%
pest or weed control at 62 g/ha ([5]; post-emergence, Postemergence): 70%
pest or weed control at 125 g/ha ([5]; post-emergence, Postemergence): 80%
pest or weed control at 16 g/ha ([5]; pre-emergence, Preemergence): 0%
pest or weed control at 31 g/ha ([5]; pre-emergence, Preemergence): 0%
pest or weed control at 62 g/ha ([5]; pre-emergence, Preemergence): 0%
pest or weed control at 125 g/ha ([5]; pre-emergence, Preemergence): 0%
pest or weed control at 16 g/ha ([6]; post-emergence, Postemergence): 65%
pest or weed control at 31 g/ha ([6]; post-emergence, Postemergence): 70%
pest or weed control at 62 g/ha ([6]; post-emergence, Postemergence): 85%
pest or weed control at 125 g/ha ([6]; post-emergence, Postemergence): 90%
pest or weed control at 16 g/ha ([6]; pre-emergence, Preemergence): 70%
pest or weed control at 31 g/ha ([6]; pre-emergence, Preemergence): 80%
pest or weed control at 62 g/ha ([6]; pre-emergence, Preemergence): 100%
pest or weed control at 125 g/ha ([6]; pre-emergence, Preemergence): 100%
pest or weed control at 16 g/ha ([7]; post-emergence, Postemergence): 70%
pest or weed control at 31 g/ha ([7]; post-emergence, Postemergence): 85%
pest or weed control at 62 g/ha ([7]; post-emergence, Postemergence): 80%
pest or weed control at 125 g/ha ([7]; post-emergence, Postemergence): 85%
pest or weed control at 16 g/ha ([7]; pre-emergence, Preemergence): 10%
pest or weed control at 31 g/ha ([7]; pre-emergence, Preemergence): 100%
pest or weed control at 62 g/ha ([7]; pre-emergence, Preemergence): 70%
pest or weed control at 125 g/ha ([7]; pre-emergence, Preemergence): 100%
pest or weed control at 16 g/ha ([8]; post-emergence, Postemergence): 75%
pest or weed control at 31 g/ha ([8]; post-emergence, Postemergence): 80%
pest or weed control at 62 g/ha ([8]; post-emergence, Postemergence): 85%
pest or weed control at 125 g/ha ([8]; post-emergence, Postemergence): 90%
pest or weed control at 16 g/ha ([8]; pre-emergence, Preemergence): 95%
pest or weed control at 31 g/ha ([8]; pre-emergence, Preemergence): 100%
pest or weed control at 62 g/ha ([8]; pre-emergence, Preemergence): 100%
pest or weed control at 125 g/ha ([8]; pre-emergence, Preemergence): 100%
pest or weed control at 16 g/ha ([9]; post-emergence, Postemergence): 85%
pest or weed control at 31 g/ha ([9]; post-emergence, Postemergence): 90%
pest or weed control at 62 g/ha ([9]; post-emergence, Postemergence): 95%
pest or weed control at 125 g/ha ([9]; post-emergence, Postemergence): 95%
pest or weed control at 16 g/ha ([9]; pre-emergence, Preemergence): 75%
pest or weed control at 31 g/ha ([9]; pre-emergence, Preemergence): 100%
pest or weed control at 62 g/ha ([9]; pre-emergence, Preemergence): 100%
pest or weed control at 125 g/ha ([9]; pre-emergence, Preemergence): 100%
pest or weed control at 16 g/ha ([10]; post-emergence, Postemergence): 75%
pest or weed control at 31 g/ha ([10]; post-emergence, Postemergence): 70%
pest or weed control at 62 g/ha ([10]; post-emergence, Postemergence): 80%
pest or weed control at 125 g/ha ([10]; post-emergence, Postemergence): 80%
pest or weed control at 16 g/ha ([10]; pre-emergence, Preemergence): 70%
pest or weed control at 31 g/ha ([10]; pre-emergence, Preemergence): 100%
pest or weed control at 62 g/ha ([10]; pre-emergence, Preemergence): 100%
pest or weed control at 125 g/ha ([10]; pre-emergence, Preemergence): 100%
plant injury at 16 g/ha ([11]; post-emergence, Postemergence): 0%
plant injury at 31 g/ha ([11]; post-emergence, Postemergence): 0%
plant injury at 62 g/ha ([11]; post-emergence, Postemergence): 5%
plant injury at 125 g/ha ([11]; post-emergence, Postemergence): 10%
plant injury at 16 g/ha ([11]; pre-emergence, Preemergence): 5%
plant injury at 31 g/ha ([11]; pre-emergence, Preemergence): 10%
plant injury at 62 g/ha ([11]; pre-emergence, Preemergence): 10%
plant injury at 125 g/ha ([11]; pre-emergence, Preemergence): 35%
